For assay [1], the target named is T1, EP4 (Homo sapiens, UniProt P35408).
T1 construct: host or cells: stably transfected HEK293 cells co-expressing a promiscuous G protein and a clytin variant
Briefly: Functional calcium flux assay, EP4. It is filed as cell-based. The conditions noted are these: stably transfected HEK293 cells; PGE2 10 nM; read-out: EP4 Ca2+-flux assay IC50. Background: A change in cytosolic calcium serves as a functional read-out for many receptors and channels.
Description: Each receptor subtype has an additional promiscuous G protein added in order to couple the aforementioned receptor to the calcium signaling pathway. The parental cell line used also expresses a novel variant of clytin, a calcium-activated photo-protein, to enable sensitive luminescent detection. Briefly, cells were plated at 50,000 cells-per-well in black, clear bottom 96-well plates. The plated cells were allowed to sit at room temperature for 30 min prior to transferring to a humidified, 37° C., 5% CO2 incubator for 18 to 24 h. Assay buffer (HBSS with 20 mM HEPES) and loading buffer (assay buffer plus 10 μM coelenterazine) were prepared on the day of the assay. Assays were performed by aspirating media from the assay plate and washing once with assay buffer, then replacing with loading buffer and allowing the cells to incubate for 1.5 h at room temperature. Compounds were prepared in assay buffer at a 3× final concentration in non-binding plates. Compounds were added to the cell plates and incubated for 30 min at room temperature. The prostanoid receptor ligand PGE2 was prepared at a 4× dilution ratio for a final concentration of 10 nM. Plates were run on a Flexstation™ using a 100 ms integration luminescence protocol for a total of 60 sec with ligand addition at 15 sec. Data were obtained from relative light units as measured by area under the curve.

For assay [2], the target named is EP2 (Homo sapiens, UniProt P43116).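 Further: functional calcium flux assay in stably transfected HEK293 cells expressing EP2 coupled via a promiscuous G protein, clytin luminescence read as area under the curve, 30 min compound preincubation.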

Here are results for 26 compounds from patent publication US12215093B2, “Bicyclic carboxamides and methods of use thereof” (Tempest Therapeutics, Inc., priority 2018, dated 2025).

What is called IC50 is the concentration that inhibits the measured activity by half.

EP2, sequence (P43116 whole entry): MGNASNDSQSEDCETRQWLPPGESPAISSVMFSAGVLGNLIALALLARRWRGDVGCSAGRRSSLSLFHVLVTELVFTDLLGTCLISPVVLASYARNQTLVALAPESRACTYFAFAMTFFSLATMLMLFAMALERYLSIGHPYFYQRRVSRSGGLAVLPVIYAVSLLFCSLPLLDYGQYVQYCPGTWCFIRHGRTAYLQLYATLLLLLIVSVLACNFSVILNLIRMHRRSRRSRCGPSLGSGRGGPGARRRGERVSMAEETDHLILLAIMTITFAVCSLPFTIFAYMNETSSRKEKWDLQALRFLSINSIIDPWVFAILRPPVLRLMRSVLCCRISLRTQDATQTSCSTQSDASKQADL
T1 sequence (P35408 whole entry): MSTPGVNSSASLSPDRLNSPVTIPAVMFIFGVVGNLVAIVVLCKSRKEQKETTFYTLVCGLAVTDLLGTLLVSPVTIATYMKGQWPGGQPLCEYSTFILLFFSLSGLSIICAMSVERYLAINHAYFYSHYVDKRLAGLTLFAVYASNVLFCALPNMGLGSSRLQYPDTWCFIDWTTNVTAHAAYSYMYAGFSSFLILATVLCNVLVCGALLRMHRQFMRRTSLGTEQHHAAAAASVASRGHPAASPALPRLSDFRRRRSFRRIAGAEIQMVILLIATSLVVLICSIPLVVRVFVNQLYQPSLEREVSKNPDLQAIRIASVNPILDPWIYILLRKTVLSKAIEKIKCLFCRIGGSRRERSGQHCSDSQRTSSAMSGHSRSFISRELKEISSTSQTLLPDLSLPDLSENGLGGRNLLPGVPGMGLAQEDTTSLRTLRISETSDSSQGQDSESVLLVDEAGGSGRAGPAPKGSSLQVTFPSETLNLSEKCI

For `O=C(NC1CC2(C1)CC(C(=O)O)C2)c1ccc(Cl)c2cnn(Cc3ccc(-n4cccn4)cc3)c12` (centres unmarked) [Example 73, (Sa)-6-(1-(4-(1H-pyrazol-1-yl)benzyl)-4-chloro-1H-indazole-7-carboxamido)spiro[3.3]heptane-2-carboxylic acid], the IC50 in assay [1] came to 1.3 nM; in assay [2] it was 71 nM. Regarding `COc1cc(C#N)cc(-c2ccc(C(C)n3ncc4cccc(C(=O)NC5CC6(C5)CC(C(=O)O)C6)c43)cc2)c1` (single isomer, unassigned) [Example 126, (Sa)-6-(1-((R) or (S)-1-(3′-cyano-5′-methoxy-[1,1′-biphenyl]-4-yl)-ethyl)-1H-indazole-7-carboxamido)spiro[3.3]heptane-2-carboxylic acid], the half-inhibitory concentration (IC50) was under 1 nM in assay [1] and under 25 nM in assay [2]. In the case of `COc1ccc2cc(-c3ccc(Cn4ncc5cc(Cl)cc(C(=O)NC6CC7(CC(CC(=O)O)C7)C6)c54)cc3)ccc2n1` (centres unmarked) [Example 147, (Ra)-2-(6-(5-Chloro-1-(4-(2-methoxyquinolin-6-yl)benzyl)-1H-indazole-7-carboxamido)spiro[3.3]heptan-2-yl)acetic acid], the half-maximal inhibitory concentration (IC50) in assay [1] is under 1 nM; in assay [2] it was under 25 nM. For `CNC(=O)c1cc(-c2ccc(Cn3ccc4c(F)ccc(C(=O)NC5CC6(C5)CC(C(=O)O)C6)c43)cc2)ccn1` (centres unmarked) [Example 60, (Sa)-6-(4-fluoro-1-(4-(2-(methylcarbamoyl)pyridin-4-yl)benzyl)-1H-indole-7-carboxamido)spiro[3.3]heptane-2-carboxylic acid] the same measures were under 1 nM and 40 nM. Consider `COc1ccc2cc(Cn3ncc4c(Cl)ccc(C(=O)N[C@H]5CC6(C5)C[C@H](C(=O)O)C6)c43)ccc2n1` (some centres unmarked) [Example 175, (Sa)-6-(4-Chloro-1-((2-methoxyquinolin-6-yl)methyl)-1H-indazole-7-carboxamido)spiro[3.3]heptane-2-carboxylic acid], for which the IC50 in assay [1] is 5.6 nM; in assay [2], under 25 nM. In the case of `O=C(NC1CC2(C1)CC(C(=O)O)C2)c1cc(OC(F)F)cc2cnn(Cc3ccc(-c4ccccc4)cc3)c12` (centres unmarked) [Example 163], the results for the IC50 in assay [1] and in assay [2] were under 1 nM and 30 nM, respectively. Turning to `CCOc1cc(-c2ccc(C(C)n3ncc4c(Cl)ccc(C(=O)NC5CC6(C5)CC(C(=O)O)C6)c43)cc2)ccn1` (single isomer, unassigned) [Example 131, (Sa)-6-(4-chloro-1-((R) or (S)-1-(4-(2-ethoxypyridin-4-yl)phenyl)-ethyl)-1H-indazole-7-carboxamido)spiro[3.3]heptane-2-carboxylic acid], the IC50 was under 1 nM in assay [1] and under 25 nM in assay [2]. Consider `COc1ccc2cc(Cn3ccc4c(F)ccc(C(=O)NC5CC6(C5)CC(C(=O)O)C6)c43)ccc2c1` (centres unmarked) [Example 38, (Sa)-6-(4-fluoro-1-((6-methoxynaphthalen-2-yl)methyl)-1H-indole-7-carboxamido)spiro[3.3]heptane-2-carboxylic acid], for which the IC50 is under 1 nM in assay [1] and under 25 nM in assay [2]. Take `O=C(NC1CC2(C1)CC(C(=O)O)C2)c1ccc(F)c2ccn(Cc3ccc(-c4ccnc(C(F)F)c4)cc3)c12` (centres unmarked) [Example 64, (Sa)-6-(1-(4-(2-(difluoromethyl)pyridin-4-yl)benzyl)-4-fluoro-1H-indole-7-carboxamido)spiro[3.3]heptane-2-carboxylic acid]: the IC50 is under 1 nM in assay [1] and 48 nM in assay [2]. In the case of `CCOc1nccc(-c2ccc(Cn3ncc4c(Cl)ccc(C(=O)NC5CC6(C5)CC(C(=O)O)C6)c43)cc2)n1` (centres unmarked) [Example 84, (Sa)-6-(4-chloro-1-(4-(2-ethoxypyrimidin-6-yl)benzyl)-1H-indazole-7-carboxamido)spiro[3.3]heptane-2-carboxylic acid], the figures for the IC50 in assay [1] and in assay [2] were under 1 nM and under 25 nM, respectively. Regarding `CC(c1ccc(N2C[C@H]3C[C@H]3C2)cc1)n1ncc2c(Cl)ccc(C(=O)NC3CC4(C3)CC(C(=O)O)C4)c21` (mixture of isomers) [Example 77, (Sa)-6-(1-((racemic)-1-(4-((1R,5S)-3-azabicyclo[3.1.0]hexan-3-yl)phenyl)ethyl)-4-chloro-1H-indazole-7-carboxamido)spiro[3.3]heptane-2-carboxylic acid], the IC50 in assay [1] was under 1 nM; in assay [2], 71 nM. Turning to `COc1cc(F)cc(-c2ccc(Cn3ccc4c(F)ccc(C(=O)NC5CC6(C5)CC(C(=O)O)C6)c43)cc2)c1` (centres unmarked) [Example 53, (Sa)-6-(4-fluoro-1-((3’-fluoro-5’-methoxy-[1,1′-biphenyl]-4-yl)methyl)-1H-indole-7-carboxamido)spiro[3.3]heptane-2-carboxylic acid], the IC50 is under 1 nM in assay [1] and under 25 nM in assay [2]. `CCOc1nccc(-c2ccc(Cn3ccc4c(F)ccc(C(=O)NC5CC6(C5)CC(C(=O)O)C6)c43)cc2)n1` (centres unmarked) [Example 58, (Sa)-6-(1-(4-(2-ethoxypyrimidin-4-yl)benzyl)-4-fluoro-1H-indole-7-carboxamido)spiro[3.3]heptane-2-carboxylic acid]: the concentration for half-maximal inhibition (IC50) came out at 2.4 nM in assay [1] and 95 nM in assay [2].

`N#Cc1cccc(-c2ccc(Cn3ncc4c(Cl)ccc(C(=O)NC5CC6(CC(CC(=O)O)C6)C5)c43)cc2)c1` (centres unmarked) [Example 144, (Ra)-2-(6-(4-Chloro-1-((3′-cyano-[1,1-biphenyl]-4-yl)methyl)-1H-indazole-7-carboxamido)spiro[3.3]heptan-2-yl)acetic acid]: the IC50 in assay [1] is under 1 nM; in assay [2], under 25 nM.

For `CC(c1ccc(-c2ccccc2)cc1)n1ccc2c(F)ccc(C(=O)NC3CC4(C3)CC(C(=O)O)C4)c21` (racemic) [Example 116, (S)-6-(1-(racemic)-1-([1,1′-biphenyl]-4-yl)-ethyl)-4-fluoro-1H-indole-7-carboxamido)spiro[3.3]heptane-2-carboxylic acid], the results for the half-maximal inhibitory concentration (IC50) in assay [1] and in assay [2] were 2.8 nM and under 25 nM, respectively. As to `O=C(O)CC1CC2(C1)CC(NC(=O)c1cc(Cl)cc3cnn(Cc4ccc(-c5ccccc5)c(F)c4)c13)C2` (centres unmarked) [Example 152, (Sa)-2-(6-(5-Chloro-1-((2-fluoro-[1,1′-biphenyl]-4-yl)methyl)-1H-indazole-7-carboxamido)spiro[3.3]heptan-2-yl)acetic acid], the figures for the IC50 in assay [1] and in assay [2] were under 1 nM and 49 nM, respectively.

In the case of `O=C(NC1CC2(C1)CC(C(=O)O)C2)c1ccc(Cl)c2ccn(Cc3ccc(-c4ccccc4)cc3)c12` (centres unmarked) [Example 68, (Sa)-6-(1-([1,1′-biphenyl]-4-ylmethyl)-4-chloro-1H-indole-7-carboxamido)spiro[3.3]heptane-2-carboxylic acid], the half-inhibitory concentration (IC50) in assay [1] is under 1 nM; in assay [2], under 25 nM. `CC(c1ccc(-c2ccccc2)cc1)n1ccc2c(F)ccc(C(=O)NC3CC4(C3)CC(C(=O)O)C4)c21` (single isomer, unassigned) [Example 127, (Sa)-6-(1-((R) or (S)-1-([1,1′-biphenyl]-4-yl)-ethyl)-4-fluoro-1H-indole-7-carboxamido)spiro[3.3]heptane-2-carboxylic acid]: the IC50 was 1.2 nM in assay [1] and under 25 nM in assay [2]. `COc1cc(-c2ccc(Cn3ccc4c(F)ccc(C(=O)NC5CC6(C5)CC(C(=O)O)C6)c43)cc2)ccc1F` (centres unmarked) [Example 46, (Sa)-6-(4-fluoro-1-((4’-fluoro-3’-methoxy-[1,1′-biphenyl]-4-yl)methyl)-1H-indole-7-carboxamido)spiro[3.3]heptane-2-carboxylic acid]: the IC50 in assay [1] was under 1 nM; in assay [2] it was 88 nM. For the compound `COc1cc(-c2ccc(Cn3ccc4c(F)ccc(C(=O)NC5CC6(CC(CC(=O)O)C6)C5)c43)cc2)ccn1` (centres unmarked) [Example 139, (Ra)-2-(6-(4-Fluoro-1-(4-(2-methoxypyridin-4-yl)benzyl)-1H-indole-7-carboxamido)spiro[3.3]heptan-2-yl)acetic acid], the figures for the IC50 in assay [1] and in assay [2] were under 1 nM and under 25 nM, respectively. With `O=C(NC1CC2(C1)CC(C(=O)O)C2)c1ccc(F)c2ccn(Cc3ccc4cc(Br)ccc4c3)c12` (centres unmarked) [Example 42, (Sa)-6-(1-((6-bromonaphthalen-2-yl)methyl)-4-fluoro-1H-indole-7-carboxamido)spiro[3.3]heptane-2-carboxylic acid], the IC50 was under 1 nM in assay [1] and 37 nM in assay [2]. For `COc1ccc2ccc(Cn3ccc4c(F)ccc(C(=O)NC5CC6(C5)CC(C(=O)O)C6)c43)cc2c1` (centres unmarked) [Example 40, (Sa)-6-(4-fluoro-1-((7-methoxynaphthalen-2-yl)methyl)-1H-indole-7-carboxamido)spiro[3.3]heptane-2-carboxylic acid] the same measures were under 1 nM and under 25 nM. For `CCOc1cc(-c2ccc(C(C)n3ccc4c(F)ccc(C(=O)NC5CC6(C5)CC(C(=O)O)C6)c43)cc2)ccn1` (racemic) [Example 118, (Sa)-6-(1-((racemic)-1-(4-(2-ethoxypyridin-4-yl)phenyl)-ethyl)-4-fluoro-1H-indole-7-carboxamido)spiro[3.3]heptane-2-carboxylic acid] the same measures were 2.6 nM and 31 nM. For the compound `O=C(O)CC1CC2(C1)CC(NC(=O)c1ccc(OC(F)F)c3cnn(Cc4ccc(-c5ccccc5)cc4)c13)C2` (centres unmarked) [Example 162, (Ra)-2-(6-(1-([1,1′-Biphenyl]-4-ylmethyl)-4-(difluoromethoxy)-1H-indazole-7-carboxamido)spiro[3.3]heptan-2-yl)acetic acid], the results for the IC50 in assay [1] and in assay [2] were 1.2 nM and 52 nM, respectively.

For `O=C(NC1CC2(C1)CC(C(=O)O)C2)c1ccc(Cl)c2ccn(Cc3ccc(-c4ccncc4)cc3)c12` (centres unmarked) [Example 67, (Sa)-6-(4-Chloro-1-(4-(pyridin-4-yl)benzyl)-1H-indole-7-carboxamido)spiro[3.3]heptane-2-carboxylic acid], the IC50 in assay [1] amounted to 6.6 nM.

With `N#Cc1ccc(-c2ccc(Cn3ncc4c(Cl)ccc(C(=O)NC5CC6(CC(CC(=O)O)C6)C5)c43)cc2)cc1` (centres unmarked) [Example 145, (Ra)-2-(6-(4-Chloro-1-((4′-cyano-[1,1′-biphenyl]-4-yl)methyl)-1H-indazole-7-carboxamido)spiro[3.3]heptan-2-yl)acetic acid], the IC50 in assay [1] was under 1 nM.
